Where two headings read alike, the source gives them in different places.
Assays:
[1] = test system: T1, Plasmodium falciparum 3D7; assay: microbe, parasite or virus in culture; set-up: species or system P. falciparum 3D7 in human erythrocytes; Asexual blood stage growth inhibition dose response of parental 3D7 parasites, EC50; details: 3D7, Erythrocyte
T1 construct: 3D7 parental line, asexual blood stage
Excerpt: Fig. 1 Gene-edited PfACS10 and PfACS11 lines phenocopy parasite lines selected to become resistant to a range of antiplasmodial chemotypes. a Chemical structures of the compounds used in drug selections. b–d Dose response curves for a representative example of the parental 3D7 line (black), the selected lines (ACS11E668K_S, ACS11F387V_S, and ACS10M300I_S) and the genetically edited lines (ACS11E668K_C, ACS11F387V_C, and ACS10M300I_C) against the compound used to select for the resistant lines. At least three biological replicates were run for each strain in technical triplicates. Shown are the average ±SD and the non-linear regression curve fit for one biological assay run in triplicate. Statistical significances for EC50 are reported in Supplementary Data 1 and source data are provided as a Source Data file. Previous work by the MalDA consortium identified MMV019719 and MMV665924 as two new phenotypic hits from the chemically diverse Medicines for Malaria Venture (MMV) Malaria Box[8],[12]. […] To verify the role of these mutations in conferring resistance to these two compounds (resistance is defined here as a more than 2-fold shift in EC50 values in in vitro culture compared to the parental line), we used CRISPR/Cas9 technology to perform allelic replacements of a subset of the mutations observed (Supplementary Fig. 1 and Supplementary Table 1). Using the 3D7 parental line, we introduced the individual point mutations F387V or E668K into PfACS11 and M300I into PfACS10, yielding the gene-edited lines ACS11F387V_C, ACS11E668K_C, and ACS10M300I_C. These parasites phenocopied the increase in EC50 values seen in drug-selected compared to wildtype parasites (Fig. 1a–c and Supplementary Data 1). These findings confirm that the mutations in PfACS10 and PfACS11 identified by resistance selections with MMV019719 and MMV665924 are sufficient to reduce susceptibility to these compounds. […] MMV019719, MMV665924, and MMV897615 were freely available as part of the Medicines for Malaria Venture’s (MMV) Malaria Box. Triacsin C was purchased from Sigma-Aldrich (St. Louis, MO, ref. T4540). The 3D7 P. falciparum strain was originally obtained through MR4 as part of the BEI Resources Repository, NIAID, NIH: 3D7, MRA-102, deposited by D. J. Carucci. We also used 3D7- IG06 (a fast-growing 3D7 clone)[64] donated by Daniel Goldberg and Dd2-Polδ[23] donated by Marcus Lee. The Malawi parasites (CF04.008 10B and CF04.009 6D and 1 G, two different patient isolates that were subcloned after culture adaption) were kindly donated by Danny Milner[26]. Parasites were cultured by standard methods[65] in RPMI 1640 medium supplemented with 28 mM NaHCO3, 25 mM HEPES, 400 μM hypoxanthine, 25 μg/mL gentamicin, and 0.5% AlbuMAX II (Life Technologies, Carlsbad, CA 11021-045). The human erythrocytes were sourced ethically, and their research use was in accord with the terms of approved protocol.

[2] = test system: T2, Plasmodium falciparum PolD (Dd2-Polδ); assay: microbe, parasite or virus in culture; set-up: species or system P. falciparum Dd2-Polδ in human erythrocytes; Parasite survival dose response by flow cytometry with SYBR Green and MitoTracker Deep Red, EC50; details: DD2, Erythrocyte, 72 h
T2 construct: Dd2-Polδ parental hypermutator line, wild-type PfACS10, asexual blood stage
Protocol: To define the EC50 of parasites, ring-stage cultures at 0.2% parasitemia and 1% hematocrit were exposed for 72 h to a range of ten drug concentrations that were 2-fold serially diluted in duplicates along with DMSO controls. Parasite survival was assessed by flow cytometry on an iQue flow cytometer (Sartorius) using SYBR Green and MitoTracker Deep Red FM (Life Technologies) as nuclear stain and vital dyes respectively. Fig. 2 Mutations in PfACS10 can cause collateral sensitivity to distinct chemotypes. Mean EC50 ± SD values for strains containing mutations in PfACS10 selected in the Dd2-Polδ line (A268D, A268V, and F427L) and in 3D7 (M300I), are shown for MMV897615, MMV665924, and MMV019719. Assays were run in triplicate and at least repeated twice. ANOVA with Dunnett post-tests compared mutations in the Dd2-Polδ line, a p < 0.001, b p = 0.005. Two-sided unpaired Student’s t test compared 3D7 and ACS10M300I_C. c p = 0.0003, d p = 0.0000008, e p = 0.0016. Source data are provided as a Source Data file and in Supplementary Data 1. More recently, we performed selections in a hypermutator P. falciparum line (Dd2-Polδ[23]) with MMV897615, which yielded three novel mutations in PfACS10 that confer at least a seven-fold increase in resistance (ACS10A268D, ACS10A268V, and ACS10F427L, Fig. 2 and Supplementary Data 1 and 3). […]

Work on `CCC/C=C/C/C=C/C=C/C=N/NN=O` [Triacsin C] yielded an EC50 ([1]; read-out: Triacsin / EC50 [nM]) of 549 nM.
Compound `CCc1cccc(CNC(=O)c2nc3cccc(COCc4ccc(C(=O)O)cc4)c3c(=O)[nH]2)c1` [19f, MMV897615] has an EC50 ([2]; read-out: MMV897615 / EC50 [nM] (b) / EC50 [nM] (c)) of 39.6 nM and an EC50 ([1]; read-out: MMV897615 / EC50 [nM] (b)) of 52.9 nM.
Compound `CCN(CC)Cc1cc(Nc2ccnc3cc(Cl)ccc23)ccc1O` [amodiaquine] has an EC50 ([1]; read-out: Amodiaquin (ADQ) / EC50 [nM]) of 4.34 nM.
`COc1ccc(C(=O)C2CC2c2ccc(Cl)cc2)cc1` (stereo not drawn) [MMV665924] was tested, and the EC50 ([2]; read-out: MMV665924 / EC50 [nM] (a) / EC50 [nM] (c)) was 1360 nM and the EC50 ([1]; read-out: MMV665924 / EC50 [nM] (a)) was 340 nM.
Work on `C=C[C@H]1CN2CC[C@H]1C[C@H]2[C@H](O)c1ccnc2ccc(OC)cc12` [quinine] yielded an EC50 ([1]; read-out: Quinine (QN) / EC50 [nM]) of 37.3 nM.
`O=C1C(O)=C([C@H]2CC[C@H](c3ccc(Cl)cc3)CC2)C(=O)c2ccccc21` [atovaquone] gave an EC50 ([1]; read-out: Atovaquone (ATQ) / EC50 [nM]) of 0.287 nM.
In the case of `O[C@@H](c1cc(C(F)(F)F)nc2c(C(F)(F)F)cccc12)[C@H]1CCCCN1` (racemic) [mefloquine], the EC50 ([1]; read-out: Mefloquine (MQ) / EC50 [nM]) is reported as 15.3 nM.

— paper PMC10020447, “Potent acyl-CoA synthetase 10 inhibitors kill Plasmodium falciparum by disrupting triglyceride formation” (Nature Communications, 2023)
